Source: patent US6358947B1 (American Home Products Corporation, priority 1999, dated 2002)

How the values were obtained:
Assay type in all cases: cell-based
hMR = target: T1, hMR (Homo sapiens, UniProt P08235); assay: Cotransfection assay, MR antagonist; settings: read-out: MR Potency Antag
T1 sequence (P08235 1-984): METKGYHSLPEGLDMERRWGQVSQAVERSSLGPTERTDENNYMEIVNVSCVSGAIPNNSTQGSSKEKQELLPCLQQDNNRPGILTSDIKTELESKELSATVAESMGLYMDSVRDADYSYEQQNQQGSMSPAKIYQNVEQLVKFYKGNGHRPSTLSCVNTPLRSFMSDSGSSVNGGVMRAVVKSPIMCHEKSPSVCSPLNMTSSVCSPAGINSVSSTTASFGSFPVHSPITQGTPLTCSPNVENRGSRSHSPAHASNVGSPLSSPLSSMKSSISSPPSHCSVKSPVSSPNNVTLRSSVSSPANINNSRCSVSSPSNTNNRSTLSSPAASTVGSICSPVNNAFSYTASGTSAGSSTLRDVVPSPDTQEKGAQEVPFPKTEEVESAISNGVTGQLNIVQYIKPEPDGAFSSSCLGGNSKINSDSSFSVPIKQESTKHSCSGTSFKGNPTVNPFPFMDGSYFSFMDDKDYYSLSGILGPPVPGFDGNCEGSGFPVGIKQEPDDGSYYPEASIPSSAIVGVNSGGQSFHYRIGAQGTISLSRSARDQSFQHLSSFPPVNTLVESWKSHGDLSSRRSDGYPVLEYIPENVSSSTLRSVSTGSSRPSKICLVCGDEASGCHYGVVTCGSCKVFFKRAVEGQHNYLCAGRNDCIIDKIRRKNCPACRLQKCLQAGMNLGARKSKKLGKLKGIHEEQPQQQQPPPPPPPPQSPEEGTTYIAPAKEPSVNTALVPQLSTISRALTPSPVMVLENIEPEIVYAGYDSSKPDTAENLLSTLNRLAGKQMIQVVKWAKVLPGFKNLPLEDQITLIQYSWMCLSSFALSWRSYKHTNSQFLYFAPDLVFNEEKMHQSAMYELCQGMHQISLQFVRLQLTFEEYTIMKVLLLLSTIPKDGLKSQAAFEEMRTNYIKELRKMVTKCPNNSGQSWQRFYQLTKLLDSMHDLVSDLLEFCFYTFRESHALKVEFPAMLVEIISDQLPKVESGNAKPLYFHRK

hER = target: T2, hER (Homo sapiens, UniProt P03372); assay: Cotransfection assay, ER antagonist; settings: read-out: ER Potency Antag
T2 sequence (P03372 1-595): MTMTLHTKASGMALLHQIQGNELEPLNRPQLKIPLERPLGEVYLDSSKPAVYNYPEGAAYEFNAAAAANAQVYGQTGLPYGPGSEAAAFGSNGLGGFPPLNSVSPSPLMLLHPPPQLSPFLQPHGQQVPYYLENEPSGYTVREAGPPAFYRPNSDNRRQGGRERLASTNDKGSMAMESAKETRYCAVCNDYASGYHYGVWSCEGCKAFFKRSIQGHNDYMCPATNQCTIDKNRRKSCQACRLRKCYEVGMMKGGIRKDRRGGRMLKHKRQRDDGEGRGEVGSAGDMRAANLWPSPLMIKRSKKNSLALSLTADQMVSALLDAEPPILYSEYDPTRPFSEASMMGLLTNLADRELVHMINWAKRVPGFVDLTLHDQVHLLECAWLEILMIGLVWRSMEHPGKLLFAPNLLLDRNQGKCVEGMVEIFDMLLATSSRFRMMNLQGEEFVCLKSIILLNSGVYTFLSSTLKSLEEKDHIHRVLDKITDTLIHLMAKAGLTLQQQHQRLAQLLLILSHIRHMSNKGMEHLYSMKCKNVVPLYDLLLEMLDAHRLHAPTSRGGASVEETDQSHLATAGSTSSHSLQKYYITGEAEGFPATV

hAR [1] = target: T3, hAR (Homo sapiens, UniProt P10275); assay: Cotransfection assay, AR antagonist; settings: read-out: AR Potency Antag
T3 sequence (P10275 1-920): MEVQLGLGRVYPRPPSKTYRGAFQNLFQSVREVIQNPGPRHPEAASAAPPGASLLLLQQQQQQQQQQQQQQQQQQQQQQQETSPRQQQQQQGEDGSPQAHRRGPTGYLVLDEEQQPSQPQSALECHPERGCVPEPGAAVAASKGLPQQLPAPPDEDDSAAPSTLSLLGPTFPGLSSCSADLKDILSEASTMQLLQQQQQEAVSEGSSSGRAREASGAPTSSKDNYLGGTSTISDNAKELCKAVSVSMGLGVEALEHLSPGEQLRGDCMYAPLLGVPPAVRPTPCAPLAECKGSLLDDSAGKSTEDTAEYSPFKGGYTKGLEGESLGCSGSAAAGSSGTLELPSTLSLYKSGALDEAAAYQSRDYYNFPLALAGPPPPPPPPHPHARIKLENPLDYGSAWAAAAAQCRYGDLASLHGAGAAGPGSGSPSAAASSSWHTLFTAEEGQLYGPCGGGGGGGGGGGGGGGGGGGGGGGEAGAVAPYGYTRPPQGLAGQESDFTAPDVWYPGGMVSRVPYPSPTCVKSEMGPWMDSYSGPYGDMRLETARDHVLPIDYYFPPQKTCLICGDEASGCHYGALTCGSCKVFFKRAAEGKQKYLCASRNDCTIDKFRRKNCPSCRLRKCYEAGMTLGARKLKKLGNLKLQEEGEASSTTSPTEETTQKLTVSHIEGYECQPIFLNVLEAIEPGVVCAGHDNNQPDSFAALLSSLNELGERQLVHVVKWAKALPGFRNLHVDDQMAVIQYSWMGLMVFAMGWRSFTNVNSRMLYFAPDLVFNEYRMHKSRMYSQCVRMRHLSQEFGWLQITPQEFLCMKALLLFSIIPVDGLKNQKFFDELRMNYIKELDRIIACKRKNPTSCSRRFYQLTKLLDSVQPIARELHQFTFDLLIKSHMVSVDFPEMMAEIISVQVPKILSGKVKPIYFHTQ

hAR [2] = target: T3, hAR; assay: Cotransfection assay, AR agonist; settings: read-out: AR Potency Agon

IC50 (hMR) [µM]	IC50 (hER) [µM]	IC50 (hAR [1]) [µM]	EC50 (hAR [2]) [µM]	Structure (SMILES)
> 10	> 10	0.2	> 10	CC1(C)OC(=O)Nc2ccc3c(c21)COc1c(F)cccc1-3 [Compound 14, 7-Fluoro-4,4-dimethyl-5H-chromeno[3,4-f]-1,3-benzo[d]oxazin-2-one]
> 10	> 10	1	> 10	CC1(C)OC(=O)Nc2ccc3c(c21)COc1c(F)cc(Br)cc1-3 [Compound 20, 9-Bromo-7-fluoro-4,4-dimethyl-5H-chromeno[3,4-f]-1,3-benzo[d]oxazin-2-one]
> 10	> 10	0.13	> 10	CC1(C)OC(=O)Nc2ccc3c(c21)COc1c(F)cc(C=O)cc1-3 [Compound 24, 7-fluoro-9-formyl-4,4-dimethyl-5H-chromeno[3,4-f]-1,3-benzo[d]oxazin-2-one]
> 10	> 10	0.1	> 10	CC1(C)OC(=O)Nc2ccc3c(c21)COc1c(F)cc(C=NO)cc1-3 [Compound 25, 7-fluoro-9-hydroxyiminomethyl-4,4-dimethyl-5H-chromeno[3,4-f]-1,3-benzo[d]oxazin-2-one]
> 10	> 10	0.3	> 10	CC1(C)OC(=O)Nc2ccc3c(c21)COc1c(F)cc(C#N)cc1-3 [Compound 26, 9-cyano-7-fluoro-4,4-dimethyl-5H-chromeno[3,4-f]-1,3-benzo[d]oxazin-2-one]
